ChEMBL document CHEMBL1681651, “A broad spectrum anticancer nucleoside with selective toxicity against human colon cells in vitro” (2011)

Assays:
Assay type in all cases: functional
[1] = tested on: MOLT-4; assay: Growth inhibition of human MOLT4 cells assessed as cell growth at 10 uM after 48 hrs by SRB assay; details: MOLT-4, 48 h, read-out: Activity
[2] = tested on: EKVX; assay: Growth inhibition of human EKVX cells assessed as cell growth at 10 uM after 48 hrs by SRB assay; details: read-out: Activity
[3] = tested on: NCI-H226; assay: Growth inhibition of human NCI-H226 cells assessed as cell growth at 10 uM after 48 hrs by SRB assay; details: NCI-H226, 48 h, read-out: Activity
[4] = Growth inhibition of human […] cells after 48 hrs by […] growth inhibition assay
[5] = tested on: A549; assay: Growth inhibition of human A549 cells after 48 hrs by […] growth inhibition assay; details: A549, 48 h
[6] = tested on: HOP-62; assay: Growth inhibition of human HOP62 cells after 48 hrs by […] growth inhibition assay; details: HOP-62, 48 h
[7] = tested on: SK-MEL-2; assay: Growth inhibition of human SK-MEL-2 cells after 48 hrs by […] growth inhibition assay; details: SK-MEL-2, 48 h
[8] = tested on: OVCAR-5; assay: Growth inhibition of human OVCAR5 cells after 48 hrs by […] growth inhibition assay; details: OVCAR-5, 48 h
[9] = tested on: SK-OV-3; assay: Growth inhibition of human SKOV3 cells after 48 hrs by […] growth inhibition assay; details: SK-OV-3, 48 h
[10] = tested on: MCF7; assay: Growth inhibition of human MCF7 cells after 48 hrs by […] growth inhibition assay; details: MCF7, 48 h
[11] = tested on: NCI-H23; assay: Growth inhibition of human NCI-H23 cells assessed as cell growth at 0.1 uM after 48 hrs by SRB assay; details: NCI-H23, 48 h, read-out: Activity
[12] = tested on: HT-29; assay: Growth inhibition of human HT-29 cells assessed as cell growth at 0.1 uM after 48 hrs by SRB assay; details: HT-29, 48 h, read-out: Activity
[13] = tested on: LOX IMVI; assay: Growth inhibition of human LOXIMVI cells assessed as cell growth at 0.1 uM after 48 hrs by SRB assay; details: read-out: Activity
[14] = tested on: OVCAR-8; assay: Growth inhibition of human OVCAR8 cells assessed as cell growth at 0.1 uM after 48 hrs by SRB assay; details: OVCAR-8, 48 h, read-out: Activity
[15] = tested on: TK-10; assay: Growth inhibition of human TK10 cells assessed as cell growth at 0.1 uM after 48 hrs by SRB assay; details: TK-10, 48 h, read-out: Activity
[16] = tested on: U-251; assay: Growth inhibition of human U251 cells assessed as cell growth at 10 uM after 48 hrs by SRB assay; details: U-251, 48 h, read-out: Activity
[17] = tested on: OVCAR-5; assay: Growth inhibition of human OVCAR5 cells assessed as cell growth at 10 uM after 48 hrs by SRB assay; details: OVCAR-5, 48 h, read-out: Activity
[18] = tested on: CCRF-CEM; assay: Growth inhibition of human CCRF-CEM cells assessed as cell growth at 100 uM after 48 hrs by SRB assay; details: read-out: Activity
[19] = tested on: SF-268; assay: Growth inhibition of human SF268 cells assessed as cell growth at 100 uM after 48 hrs by SRB assay; details: SF-268, 48 h, read-out: Activity
[20] = tested on: SNB-19; assay: Growth inhibition of human SNB19 cells assessed as cell growth at 100 uM after 48 hrs by SRB assay; details: SNB-19, 48 h, read-out: Activity
[21] = tested on: OVCAR-8; assay: Growth inhibition of human OVCAR8 cells assessed as cell growth at 100 uM after 48 hrs by SRB assay; details: OVCAR-8, 48 h, read-out: Activity
[22] = tested on: UO-31; assay: Growth inhibition of human UO31 cells assessed as cell growth at 100 uM after 48 hrs by SRB assay; details: UO-31, 48 h, read-out: Activity
[23] = tested on: BT-549; assay: Growth inhibition of human BT549 cells assessed as cell growth at 100 uM after 48 hrs by SRB assay; details: BT-549, 48 h, read-out: Activity
[24] = tested on: A549; assay: Growth inhibition of human A549 cells assessed as cell growth at 1 mM after 48 hrs by SRB assay; details: A549, 48 h, read-out: Activity
[25] = tested on: SF-268; assay: Growth inhibition of human SF268 cells assessed as cell growth at 1 mM after 48 hrs by SRB assay; details: SF-268, 48 h, read-out: Activity
[26] = tested on: SNB-19; assay: Growth inhibition of human SNB19 cells assessed as cell growth at 1 mM after 48 hrs by SRB assay; details: SNB-19, 48 h, read-out: Activity
[27] = tested on: SNB-75; assay: Growth inhibition of human SNB75 cells assessed as cell growth at 1 mM after 48 hrs by SRB assay; details: SNB-75, 48 h, read-out: Activity
[28] = tested on: 786-0; assay: Growth inhibition of human 786-0 cells assessed as cell growth at 1 mM after 48 hrs by SRB assay; details: 786-0, 48 h, read-out: Activity
[29] = tested on: BT-549; assay: Growth inhibition of human BT549 cells assessed as cell growth at 0.1 uM after 48 hrs by SRB assay; details: BT-549, 48 h, read-out: Activity
[30] = tested on: T47D; assay: Growth inhibition of human T47D cells assessed as cell growth at 0.1 uM after 48 hrs by SRB assay; details: read-out: Activity
[31] = tested on: COLO 205; assay: Growth inhibition of human COLO205 cells assessed as cell growth at 1 uM after 48 hrs by SRB assay; details: COLO 205, 48 h, read-out: Activity
[32] = tested on: HCT-116; assay: Growth inhibition of human HCT116 cells assessed as cell growth at 1 uM after 48 hrs by SRB assay; details: HCT-116, 48 h, read-out: Activity
[33] = read-out: LC50 (the source's name)
[34] = read-out: pLC50 (the source's name) (converted)

With CNC(=O)NC[C@H]1O[C@@H](n2cnc3c(NC(=O)Nc4ccccc4)ncnc32)[C@H](O[Si](C)(C)C(C)(C)C)[C@@H]1CC(=O)N(C)OC the growth at 10 µM [1] was 78%, the growth at 10 µM [2] was 95% and the growth at 10 µM [3] was 99%. The GI50 ([4]; read-out: GI50) was 1.58 µM, the CC50 [4, 33] was > 100 µM and the TGI ([4]; read-out: TGI) was 5.4 µM. The GI50 ([4]; read-out: pGI50 (converted)) was 1.58 µM, the CC50 [4, 34] was > 100 µM and the TGI ([4]; read-out: pTGI (converted)) was 5.37 µM. The GI50 ([5]; read-out: GI50) was 9.35 µM, the CC50 [5, 33] was > 100 µM and the TGI ([5]; read-out: TGI) was > 100 µM. For the same molecule, the GI50 ([5]; read-out: pGI50 (converted)) was 9.33 µM, the CC50 [5, 34] was > 100 µM and the TGI ([5]; read-out: pTGI (converted)) was > 100 µM. The GI50 ([6]; read-out: GI50) was 24.9 µM, the CC50 [6, 33] was > 100 µM and the TGI ([6]; read-out: TGI) was > 100 µM. The GI50 ([6]; read-out: pGI50 (converted)) was 25.1 µM, the CC50 [6, 34] was > 100 µM and the TGI ([6]; read-out: pTGI (converted)) was > 100 µM. The GI50 ([7]; read-out: GI50) was 14.9 µM, the CC50 [7, 33] was > 100 µM and the TGI ([7]; read-out: TGI) was 83.1 µM. For the same molecule, the GI50 ([7]; read-out: pGI50 (converted)) was 14.8 µM, the CC50 [7, 34] was > 100 µM and the TGI ([7]; read-out: pTGI (converted)) was 83.2 µM. The GI50 ([8]; read-out: GI50) was 38.2 µM, the CC50 [8, 33] was > 100 µM and the TGI ([8]; read-out: TGI) was > 100 µM. The GI50 ([8]; read-out: pGI50 (converted)) was 38 µM, the CC50 [8, 34] was > 100 µM and the TGI ([8]; read-out: pTGI (converted)) was > 100 µM. The GI50 ([9]; read-out: GI50) was 52.7 µM, the CC50 [9, 33] was > 100 µM and the TGI ([9]; read-out: TGI) was > 100 µM. The GI50 ([9]; read-out: pGI50 (converted)) was 52.5 µM, the CC50 [9, 34] was > 100 µM and the TGI ([9]; read-out: pTGI) was > 100 µM. For the same molecule, the GI50 ([10]; read-out: GI50) was 5.59 µM, the CC50 [10, 33] was > 100 µM and the TGI ([10]; read-out: TGI) was > 100 µM. For the same molecule, the GI50 ([10]; read-out: pGI50 (converted)) was 5.62 µM, the CC50 [10, 34] was > 100 µM and the TGI ([10]; read-out: pTGI (converted)) was > 100 µM. The growth at 0.1 µM [11] was 106%, the growth at 0.1 µM [12] was 104% and the growth at 0.1 µM [13] was 97%. The growth at 0.1 µM [14] was 107%, the growth at 0.1 µM [15] was 99% and the growth at 10 µM [16] was 90%. It also gave a growth at 10 µM [17] of 92%, a growth at 100 µM [18] of 39% and a growth at 100 µM [19] of 46%. The growth at 100 µM [20] was 61%, the growth at 100 µM [21] was 48% and the growth at 100 µM [22] was 46%. The growth at 100 µM [23] was 70%, the growth at 1000 µM [24] was 27% and the growth at 1000 µM [25] was 20%. It also gave a growth at 1000 µM [26] of 51%, a growth at 1000 µM [27] of 12% and a growth at 1000 µM [28] of 8%. For the same molecule, the growth at 0.1 µM [29] was 95%, the growth at 0.1 µM [30] was 90% and the growth at 1 µM [31] was 93%. For the same molecule, the growth at 1 µM [32] was 90%.
